Measurements from patent US10844062B2, “Pyridine derivative inhibiting RAF kinase and vascular endothelial growth factor receptor, method for preparing same, pharmaceutical composition containing same, and use thereof” (SAMJIN PHARMACEUTICAL CO., LTD., priority 2016, dated 2020).
pIC50: −log10 of the molar value.

Each compound was assayed on LS513 KRAS G12V (colon) (assay: MTT assay). Settings: Homo sapiens, LS-513, 72 h, Table 4; 3 days incubation; read-out: MTT assay IC50 KRAS mutant (Colon) LS513 KRAS G12V.
Format: cell-based
In short: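 Cells were seeded at line-dependent density and stabilised overnight at 37 °C, then exposed to compounds for 3 days at 37 °C. MTT was then added for 2 h and the formazan dissolved in DMSO.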

| Structure (SMILES) | pIC50 |
| --- | --- |
| CCN1CCN(Cc2ccc(NC(=O)Nc3ccc(F)c(Nc4ncccc4-c4ncnc5[nH]cnc45)c3F)cc2C(F)(F)F)CC1 [Example 60, 1-(3-(3-(9H-Purin-6-Yl)Pyridin-2-Ylamino)-2,4-Difluorophenyl)-3-(4-((4-Ethylpiperazin-1-Yl)Methyl)-3-(Trifluoromethyl)Phenyl)Urea] | < 5.00 |
| COc1ccc(Nc2ncccc2-c2ncnc3[nH]cnc23)cc1NC(=O)c1cccc(C(F)(F)F)c1 [Example 69, N-2-Methoxy-5-[3-(9H-Purin-6-Yl)Pyridin-2-Ylamino)Phenyl-3-Trifluoromethylbenzamide] | 5.15 |
| N#CCc1ccc(C(=O)Nc2ccc(Nc3ncccc3-c3ncnc4[nH]cnc34)c(F)c2)cc1 [Example 78, N-4-[(3-(9H-Purin-6-Yl)Pyridin-2-Yl)Amino]-3-Fluorophenyl-4-(Cyanomethyl)Benzamide] | 6.86 |
| O=C(Nc1cccc(C(F)(F)F)c1)Nc1cc(Nc2ncccc2-c2ncnc3[nH]cnc23)ccc1F [Example 118, 1-5-[(3-(9H-purin-6-yl)pyridin-2-yl)amino]-2-fluorophenyl-3-[3-(trifluoromethyl)phenyl]urea] | 6.82 |
| CC(C)(C#N)c1cc(C(=O)Nc2cc(Nc3ncccc3-c3ncnc4[nH]cnc34)ccc2F)ccc1Cl [Example 117, N-5-[(3-(9H-purin-6-yl)pyridin-2-yl)amino]-2-fluorophenyl-4-chloro-3-(2-cyanopropan-2-yl)benzamide] | 6.06 |
| O=C(Nc1cc(Nc2ncccc2-c2ncnc3[nH]cnc23)ccc1F)c1cccc(C(F)(F)F)c1F [Example 121, N-5-[(3-(9H-purin-6-yl)pyridin-2-yl)amino]-2-fluorophenyl-2-fluoro-3-(trifluoromethyl)benzamide] | 6.52 |
| O=C(Nc1cc(Nc2ncccc2-c2ncnc3[nH]cnc23)ccc1Cl)c1cc(C(F)(F)F)cc(C(F)(F)F)c1 [Example 124, N-5-[(3-(9H-purin-6-yl)pyridin-2-yl)amino]-2-chlorophenyl-3,5-bis(trifluoromethyl)benzamide] | 6.05 |
| O=C(Nc1cc(Nc2ncccc2-c2ncnc3[nH]cnc23)ccc1Cl)c1cccc(C(F)(F)F)c1 [Example 66, N-2-Chloro-5-[3-(9H-Purin-6-Yl)Pyridin-2-Ylamino)Phenyl-3-Trifluoromethylbenzamide] | 6.87 |
| O=C(Nc1cc(Nc2ncccc2-c2ncnc3[nH]cnc23)ccc1F)c1ccc(F)c(OC(F)(F)F)c1 [Example 143, N-5-[(3-(9H-purin-6-yl)pyridin-2-yl)amino]-2-fluorophenyl-4-fluoro-3-(trifluoromethoxy)benzamide] | 6.25 |
| Nc1cccc(C(=O)Nc2ccc(F)c(Nc3ncccc3-c3ncnc4[nH]cnc34)c2F)c1 [Example 54, N-(3-(3-(9H-Purin-6-Yl)Pyridin-2-Ylamino)-2,4-Difluorophenyl)-3-Aminobenzamide] | < 5.00 |
| Cc1cn(-c2cc(C(=O)Nc3ccc(F)c(Nc4ncccc4-c4ncnc5[nH]cnc45)c3F)cc(C(F)(F)F)c2)cn1 [Example 2, N-(3-(3-(9H-purin-6-yl)pyridin-2-ylamino)-2,4-difluorophenyl)-3-(4-methyl-1H-imidazol-1-yl)-5-(trifluoromethyl)benzamide] | < 5.00 |
| Cc1cn(-c2cc(NC(=O)Nc3ccc(F)c(Nc4ncccc4-c4ncnc5[nH]cnc45)c3F)cc(C(F)(F)F)c2)cn1 [Example 59, 1-(3-(3-(9H-Purin-6-Yl)Pyridin-2-Ylamino)-2,4-Difluorophenyl)-3-(3-(4-Methyl-1H-Imidazol-1-Yl)-5-(Trifluoromethyl)Phenyl)Urea] | 5.67 |
| CC(C)(C#N)c1cccc(C(=O)Nc2cc(Nc3ncccc3-c3ncnc4[nH]cnc34)ccc2Cl)c1 [Example 24, N-(5-(3-(9H-purin-6-yl)pyridin-2-ylamino)-2-chlorophenyl)-3-(2-cyanopropan-2-yl)benzamide] | 6.32 |
| N#Cc1cccc(C(=O)Nc2ccc(F)c(Nc3ncccc3-c3ncnc4[nH]cnc34)c2F)c1 [Example 37, N-(3-(3-(9H-Purin-6-Yl)Pyridin-2-Ylamino)-2,4-Difluorophenyl)-3-Cyanobenzamide] | < 5.00 |
| N#Cc1cc(C(=O)Nc2cc(Nc3ncccc3-c3ncnc4[nH]cnc34)ccc2F)cc(C(F)(F)F)c1 [Example 157, N-5-[(3-(9H-purin-6-yl)pyridin-2-yl)amino]-2-fluorophenyl-3-cyano-5-(trifluoromethyl)benzamide] | 6.33 |
| O=C(Nc1cc(Nc2ncccc2-c2ncnc3[nH]cnc23)ccc1F)c1ccnc(C(F)(F)F)c1 [Example 151, N-5-[(3-(9H-purin-6-yl)pyridin-2-yl)amino]-2-fluorophenyl-2-(trifluoromethyl)isonicotinamide] | 6.46 |
| O=C(Nc1ccc(F)c(Nc2ncccc2-c2ncnc3[nH]cnc23)c1F)c1ccccc1 [Example 57, N-(3-(3-(9H-Purin-6-Yl)Pyridin-2-Ylamino)-2,4-Difluorophenyl)Benzamide] | < 5.00 |
| O=C(Nc1ccc(F)c(Nc2ncccc2-c2ncnc3[nH]cnc23)c1F)c1cccc(Cl)c1 [Example 45, N-(3-(3-(9H-Purin-6-Yl)Pyridin-2-Ylamino)-2,4-Difluorophenyl)-3-Chlorobenzamide] | < 5.00 |
| O=C(Nc1cccc(Nc2ncccc2-c2ncnc3[nH]cnc23)c1)c1cccc(C(F)(F)F)c1 [Example 51, N-(3-(3-(9H-Purin-6-Yl)Pyridin-2-Ylamino)Phenyl)-3-(Trifluoromethyl)Benzamide] | 5.25 |
| O=C(Nc1cc(Nc2ncccc2-c2ncnc3[nH]cnc23)ccc1Cl)c1cc(F)cc(C(F)(F)F)c1 [Example 67, N-2-Chloro-5-[3-(9H-Purin-6-Yl)Pyridin-2-Ylamino)Phenyl-3-Fluoro-5-Trifluoromethylbenzamide] | 5.18 |
| O=C(Nc1ccc(C(F)(F)F)cc1)Nc1cc(Nc2ncccc2-c2ncnc3[nH]cnc23)ccc1F [Example 123, 1-5-[(3-(9H-purin-6-yl)pyridin-2-yl)amino]-2-fluorophenyl-3-[4-(trifluoromethyl)phenyl]urea] | 6.41 |
| O=C(Nc1cc(Nc2ncccc2-c2ncnc3[nH]ccc23)ccc1F)c1cccc(C(F)(F)F)c1 [Example 87, N-2-Fluoro-5-[3-(7H-Pyrrolo[2,3-d]Pyrimidin-4-Yl)Pyridin-2-Ylamino]Phenyl-3-Trifluoromethyl Benzamide] | 5.66 |
| CC(C)(C#N)c1cc(F)cc(C(=O)Nc2ccc(F)c(Nc3ncccc3-c3ncnc4[nH]cnc34)c2F)c1 [Example 43, N-(3-(3-(9H-Purin-6-Yl)Pyridin-2-Ylamino)-2,4-Difluorophenyl)-3-(2-Cyanopropan-2-Yl)-5-Fluorobenzamide] | 6.40 |
| Cc1cc(C(=O)Nc2cc(Nc3ncccc3-c3ncnc4[nH]cnc34)ccc2F)cc(C(C)(C)C#N)c1 [Example 155, N-5-[(3-(9H-purin-6-yl)pyridin-2-yl)amino]-2-fluorophenyl-3-(2-cyanopropan-2-yl)-5-methylbenzamide] | 6.84 |
| CC(C)(C#N)c1cc(C(=O)Nc2ccc(F)c(Nc3ncccc3-c3ncnc4[nH]cnc34)c2F)ccc1Cl [Example 41, N-(3-(3-(9H-Purin-6-Yl)Pyridin-2-Ylamino)-2,4-Difluorophenyl)-4-Chloro-3-(2-Cyanopropan-2-Yl)Benzamide] | 6.32 |
| COC(=O)Nc1cccc(C(=O)Nc2ccc(F)c(Nc3ncccc3-c3ncnc4[nH]cnc34)c2F)c1 [Example 55, Methyl 3-(3-(3-(9H-Purin-6-Yl)Pyridin-2-Ylamino)-2,4-Difluorophenylcarbamoyl)Phenylcarbamate] | < 5.00 |
| O=C(Nc1ccc(F)c(Nc2ncccc2-c2ncnc3[nH]cnc23)c1F)c1cncs1 [Example 8, N-(3-(3-(9H-purin-6-yl)pyridin-2-ylamino)-2,4-difluorophenyl)thiazole-5-carboxamide] | < 5.00 |
| O=C(Nc1cc(Nc2ncccc2-c2ncnc3[nH]cnc23)ccc1F)c1ccc(Cl)c(OC(F)(F)F)c1 [Example 147, N-5-[(3-(9H-purin-6-yl)pyridin-2-yl)amino]-2-fluorophenyl-4-chloro-3-(trifluoromethoxy)benzamide] | 6.30 |
| COc1ccc(NC(=O)c2cccc(C(F)(F)F)c2)cc1Nc1ncccc1-c1ncnc2[nH]cnc12 [Example 70, N-4-Methoxy-5-[3-(9H-Purin-6-Yl)Pyridin-2-Ylamino)Phenyl-3-Trifluoromethylbenzamide] | 6.12 |
| O=C(Nc1ccc(F)c(Nc2ncccc2-c2ncnc3[nH]cnc23)c1F)c1cc(N2CCSCC2)cc(C(F)(F)F)c1 [Example 11, N-(3-(3-(9H-purin-6-yl)pyridin-2-ylamino)-2,4-difluorophenyl)-3-thiomorpholino-5-(trifluoromethyl)benzamide] | 6.00 |

Each compound was assayed on LS513 human colorectal cancer cell line xenograft (assay: Antitumor effect on human colorectal cancer LS513 cell line xenograft). Settings: oral, twice a day, 60 mg/kg or 30 mg/kg (dose not specified per compound), 14 days.
Format: in vivo, Balb/c nu/nu nude mice
Excerpt: In this experiment, 5 to 6-week-old female Balb/c nu/nu nude mice (weighed 18 to 20 g) were used. The mice were provided from Nara Biotech Co., Ltd. During the experiment, all the animals were housed on a mouse constant temperature/constant humidity shelf (Individually Ventilated Cages System, LAB & BIO).
Each cage (37.2 cm length×19.2 cm width×13.1 cm height) was sterilized with a sterilizer, and eight mice were received in each cage. The mice were maintained in a hygienic environment controlled to a temperature of 20 to 24° C. and a humidity of 40 to 70% with a 12-hr light/12-hr dark cycle. The mice were allowed to access sterilized feed and drinking water ad libitum. The care and treatment of these animals were carried out according to the Laboratory Animal Care Guidelines of Samjin Pharmaceutical Co., Ltd.
The mice were acclimated to the housing facility for 1 week, and then 0.1 mL of a cell suspension containing 1×10^7 cells was injected subcutaneously into the right flank of each mouse. After cell transplantation, the volume of the formed tumor was measured, and mice with formed tumors having a volume of 150 mm^3 or more were randomly divided into groups (each consisting of 7 to 8 animals) for treatment with the test compounds and a control. […] Administration of the drugs was continued for 14 days. […] At 3-day intervals from the starting day of the administration, the long axis and short axis of the tumor were measured with digital vernier calipers, and the tumor volume was calculated using the following equation and recorded: Tumor volume (TV)=Long axis×short axis^2/2.
Tumor growth inhibition for absolute tumor volume was calculated using the following equation. In the following equation, V0 is the tumor volume on the first day of drug administration (day 0), and Vt is the tumor volume after last drug administration.

| Structure (SMILES) | antitumor effect (tumor growth inhibition) compared to the vehicle control [%] |
| --- | --- |
| CCN1CCN(Cc2ccc(NC(=O)Nc3ccc(F)c(Nc4ncccc4-c4ncnc5[nH]cnc45)c3F)cc2C(F)(F)F)CC1 [Example 60, 1-(3-(3-(9H-Purin-6-Yl)Pyridin-2-Ylamino)-2,4-Difluorophenyl)-3-(4-((4-Ethylpiperazin-1-Yl)Methyl)-3-(Trifluoromethyl)Phenyl)Urea] | 69.06 |
| Cc1cn(-c2cc(NC(=O)Nc3ccc(F)c(Nc4ncccc4-c4ncnc5[nH]cnc45)c3F)cc(C(F)(F)F)c2)cn1 [Example 59, 1-(3-(3-(9H-Purin-6-Yl)Pyridin-2-Ylamino)-2,4-Difluorophenyl)-3-(3-(4-Methyl-1H-Imidazol-1-Yl)-5-(Trifluoromethyl)Phenyl)Urea] | 83.51 |
